Assay results published in PMC9511049, “Further investigation of blockade effects and binding affinities of selected natural compounds to immune checkpoint PD-1/PD-L1” (Frontiers in Oncology, 2022).
Where “and” joins values, the source holds several entries; their conditions need not be identical. Identical values can stand only once.

Legend:
[1] = biological target: T1, human PD-L1 protein (Homo sapiens, UniProt Q9NZQ7); test: PD-L1 binding assay with SPR (Biacore T200); settings: for Kd: immobilized human PD-L1 (Fc Tag); for kon: association rate, read-out: PD-L1 Ka
T1 construct: Fc; purchased ACRO Biosystems
T1 sequence (Q9NZQ7 19-290): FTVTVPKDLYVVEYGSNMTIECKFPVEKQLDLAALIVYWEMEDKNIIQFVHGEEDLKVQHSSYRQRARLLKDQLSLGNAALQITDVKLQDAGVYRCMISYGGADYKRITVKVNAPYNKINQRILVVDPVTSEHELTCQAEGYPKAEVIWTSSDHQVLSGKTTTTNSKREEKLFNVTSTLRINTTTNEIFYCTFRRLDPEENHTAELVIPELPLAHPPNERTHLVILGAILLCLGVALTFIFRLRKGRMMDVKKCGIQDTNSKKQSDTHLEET

[2] = biological target: T2, PD-1/PD-L1 interaction (Homo sapiens, UniProt Q9NZQ7); test: PD-1/PD-L1 blockade assay (pair ELISA); type: biochemical; settings: for blockade effect on the PD-1/PD-L1 interaction (in words): test samples at 10 and 100 μM
T2 construct: purchased ACRO Biosystems
T2 sequence (Q9NZQ7 19-238 limits assumed): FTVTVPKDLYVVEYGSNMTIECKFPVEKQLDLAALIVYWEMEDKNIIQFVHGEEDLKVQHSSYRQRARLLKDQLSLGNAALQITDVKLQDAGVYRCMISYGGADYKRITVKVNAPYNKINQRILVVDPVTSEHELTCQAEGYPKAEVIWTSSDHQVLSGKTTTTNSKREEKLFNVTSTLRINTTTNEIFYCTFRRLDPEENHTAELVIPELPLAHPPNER

[3] = biological target: T3, human PD-1 protein (Homo sapiens, UniProt Q15116); test: PD-1 binding assay with SPR (Biacore T200); settings: for Kd: immobilized human PD-1 (Fc Tag); for kon: association rate, read-out: PD-1 Ka
T3 construct: Fc; purchased ACRO Biosystems
T3 sequence (Q15116 25-288): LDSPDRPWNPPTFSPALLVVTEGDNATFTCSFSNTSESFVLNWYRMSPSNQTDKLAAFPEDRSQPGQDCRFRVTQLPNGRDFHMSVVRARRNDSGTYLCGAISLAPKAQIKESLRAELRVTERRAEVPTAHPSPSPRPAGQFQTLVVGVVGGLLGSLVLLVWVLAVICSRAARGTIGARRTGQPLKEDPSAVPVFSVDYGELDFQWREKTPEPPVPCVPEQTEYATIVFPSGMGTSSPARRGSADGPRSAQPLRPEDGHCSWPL
Experimental: The PD-1/PD-L1 binding affinity of test natural compounds was measured on a SPR Biacore T200 instrument (GE Healthcare; Marlborough, MA, USA). Human PD-L1and PD-1 proteins (both with a Fc Tag) were purchased from ACRO Biosystems (Newark, DE, USA). Carboxymethylated CM 5 SPR chips were purchased from GE Healthcare (Marlborough, MA, USA). The SPR binding channels were set as: Cell-1, blank immobilization; Cell-2, human PD-L1 protein was immobilized by the injection of protein solution (40 μg/mL) in sodium acetate buffer (10 mM; pH 4.5); Cell-3, human PD-1 protein was immobilized by the injection of protein solution (40 μg/mL) in sodium acetate buffer (10 mM; pH 5.0). Approximately, 5500 and 4500 RU of human PD-1 and PD-L1 proteins, respectively, were immobilized on the flow cells with an amine coupling method.

[4] = system: PD-1/PD-L1; design: method as in PMID 30068796; settings: homogenous AlphaLISA assay; read-out: IC50 of PD-1/PD-L1 blockade; cited from earlier work

Kd [1] | blockade of the PD-1/PD-L1 interaction ([2]; compound at 10 μM) [%] | blockade of the PD-1/PD-L1 interaction ([2]; compound at 100 μM) [%] | Kd [3] | kon [3] [M⁻¹ s⁻¹] | SMILES | kon [1] [M⁻¹ s⁻¹] | also measured
37.9 µM |  |  |  |  | Oc1ccc(/C=C/c2cc(O)cc(O)c2)cc1 [resveratrol] |  | koff (dissociation rate constant) to PD-L1 [1]: 0.06435 s⁻¹
1.21 µM | 11.0 | 36.9 | 1.46 µM |  | O=C(OC[C@H]1O[C@@H](OC(=O)c2cc(O)c(O)c(OC(=O)c3cc(O)c(O)c(O)c3)c2)[C@H](OC(=O)c2cc(O)c(O)c(OC(=O)c3cc(O)c(O)c(O)c3)c2)[C@@H](OC(=O)c2cc(O)c(O)c(OC(=O)c3cc(O)c(O)c(O)c3)c2)[C@@H]1OC(=O)c1cc(O)c(O)c(OC(=O)c2cc(O)c(O)c(O)c2)c1)c1cc(O)c(O)c(OC(=O)c2cc(O)c(O)c(O)c2)c1 [TA, tannic acid] |  | 
 |  |  |  |  | O=C1O[C@H]2[C@@H]3OC(=O)c4cc(O)c(O)c(O)c4-c4c(O)c(O)c5oc(=O)c6c(c(O)c(O)c7oc(=O)c4c5c76)-c4c(cc(O)c(O)c4O)C(=O)OC[C@H]3OC(O)[C@@H]2OC(=O)c2cc(O)c(O)c(O)c2-c2c1cc(O)c(O)c2O (mixture of isomers) [punicalagin] |  | activity in the PD-1/PD-L1 blockade assay (in words) ([2]; earlier observation of the authors, concentration not given): not active; binding capacity to PD-1/PD-L1 proteins (in words) ([1]; protein not specified further (PD-1/PD-L1 proteins), earlier observation of the authors): detectable binding capacity
 |  | 58.6 |  |  | CO[C@H]1/C=C/O[C@@]2(C)Oc3c(C)c(O)c4c(c3C2=O)C2=NC3(CCN(CC(C)C)CC3)NC2=C(NC(=O)/C(C)=C\C=C\[C@H](C)[C@H](O)[C@@H](C)[C@@H](O)[C@@H](C)[C@H](OC(C)=O)[C@@H]1C)C4=O [Rifabutin, rifabutin, reference compound] |  | IC50 [4]: 25 µM; binding affinity to PD-L1 protein (in words) [1]: not detectable; binding affinity to PD-1 protein (in words) [3]: not detectable
 |  | 39.7 |  |  | O=c1oc2cc(O)ccc2c2ccc(O)cc12 [urolithin A] |  | binding affinity to PD-L1 protein (in words) [1]: not detectable; binding affinity to PD-1 protein (in words) [3]: not detectable
33 µM and 32.9 µM | 4.1 | 63.4 | 0.304 µM and 0.303 µM | 504 | O=c1c(O)c(-c2ccc(O)cc2)oc2cc(O)cc(O)c12 [kaempferol] | 5460 | binding affinity to PD-1 protein relative to PD-L1 protein ([3]; PD-1 stronger than PD-L1): 100 fold
26.2 µM |  |  | 1.82 µM | 410 | O=c1oc2c(O)c(O)cc3c(=O)oc4c(O)c(O)cc1c4c23 [EA, ellagic acid] |  | blockade effect on the PD-1/PD-L1 interaction (in words) [2]: not detected

SMILES | Kd [1] | blockade of the PD-1/PD-L1 interaction ([2]; compound at 10 μM) [%] | blockade of the PD-1/PD-L1 interaction ([2]; compound at 100 μM) [%] | Kd [3] | kon [3] [M⁻¹ s⁻¹] | kon [1] [M⁻¹ s⁻¹] | also measured
O=C(OC[C@H]1O[C@@H](OC(=O)c2cc(O)c(O)c(O)c2)[C@H](OC(=O)c2cc(O)c(O)c(O)c2)[C@@H](OC(=O)c2cc(O)c(O)c(O)c2)[C@@H]1OC(=O)c1cc(O)c(O)c(O)c1)c1cc(O)c(O)c(O)c1 [PGG, pentagalloyl glucose] | 2.23 µM |  |  | 27.2 µM | 3940 | 413 | blockade effect on the PD-1/PD-L1 interaction (in words) [2]: not detected
O=c1cc(-c2ccc(O)cc2)oc2cc(O[C@@H]3O[C@H](CO)[C@@H](O)[C@H](O)[C@H]3O)cc(O)c12 [cosmosiin] | 3.32 µM |  | 55.8 |  |  | 785 | selectivity of binding (PD-L1 versus PD-1) [1]: selective binding to the PD-L1 protein; koff (dissociation rate constant) to PD-L1 [1]: 0.00261 s⁻¹
Cc1c(COc2cc(OCc3cccc(C#N)c3)c(CN3C[C@H](O)C[C@@H]3C(=O)O)cc2Cl)cccc1-c1ccc2c(c1)OCCO2 [BMS1166, reference compound] |  | 99.3 |  |  |  |  | 
